The values below come from US20260116910A1, “POLYCYCLIC COMPOUNDS AND METHODS THEREOF” (HEPAITECH (BEIJING) BIOPHARMA TECHNOLOGY CO., LTD., priority 2021, published 2026).

Assay [1] has as its target T1, human FXR (NR1H4) (Homo sapiens, UniProt Q96RI1).
T1 sequence (Q96RI1 1-476 isoform Q96RI1-1): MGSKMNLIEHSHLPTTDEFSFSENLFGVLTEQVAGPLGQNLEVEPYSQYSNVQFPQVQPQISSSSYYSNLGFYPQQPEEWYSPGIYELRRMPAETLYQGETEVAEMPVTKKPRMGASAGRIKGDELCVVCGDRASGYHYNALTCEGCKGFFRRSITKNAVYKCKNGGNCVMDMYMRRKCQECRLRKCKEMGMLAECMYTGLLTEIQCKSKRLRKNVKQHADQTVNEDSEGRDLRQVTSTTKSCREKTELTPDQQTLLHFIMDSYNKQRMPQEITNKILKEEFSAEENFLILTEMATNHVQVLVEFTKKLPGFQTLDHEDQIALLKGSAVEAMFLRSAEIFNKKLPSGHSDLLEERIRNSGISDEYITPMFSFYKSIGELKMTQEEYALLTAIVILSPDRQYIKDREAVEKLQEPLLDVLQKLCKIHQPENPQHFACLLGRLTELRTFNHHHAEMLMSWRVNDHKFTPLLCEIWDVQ
The assay is described as follows: Human FXR (NR1H4) agonist assessment, FXRE-NanoLuc reporter in HEK293T cells. Format: cell-based. Particulars: FXR activation, HEK293T FXRE-NanoLuc reporter, 24 hr; for EC50: read-out: EC50. The method, then: As those skilled in the art appreciate, various technologies are available for assessment of FXR activation in accordance with the present disclosure. […] Human FXR (NR1H4) agonist assessment (see, e.g., Yu et al. eLife 2019; 8: e48431): HEK293T cells stably expressing human FXR and containing FXR response element (FXRE)-NanoLuc reporter were cultured in DMEM medium supplemented with 10% FBS and 1% PS, at 37° C. in a humidified atmosphere with 5% CO2. Cells were detached by centrifuging (1000 rpm, 3 min). The pellet was re-suspended in medium, and cell density was adjusted to about 1×10^6 cells/mL. 100 μL suspension was seeded to each well of a white-walled, clear-bottom 96-well microplates (cell plate). Cells in microplates were cultured overnight.
In the following day, cells were grown to higher than 95% density in each well. Culture medium was replaced, and compounds were added to the wells. 0.01% DMSO (v/v) served as negative control. Plates were incubated at 37° C. in 5% CO2 for 24 hr.
In the following day, a 10 μL aliquot of cell culture medium was removed from each well and combined with 40 μL culture medium plus […] assay buffer (containing 20 mM of the luciferase substrate coelenterazine). After 5 min incubation, luminescence was measured using an EnVision plate reader (PerkinElmer).
In some embodiments, gradient diluted solutions of several concentrations were used to treat cells and corresponding responses were used to fit sigmoid function and to derive EC50 in Origin.

The target in assay [2] is MRGPRX4 (Homo sapiens, UniProt Q96LA9). The assay is described as follows: MRGPRX4 activation, Fluo-8 Ca2+ FLIPR assay in HEK293T cells stably expressing MRGPRX4. It counts as cell-based. The settings on record: for EC50: MRGPRX4 activation, Ca2+ fluorescence, no activation in tested range reported as III, read-out: Activity (EC50 μM). How it is done: In some embodiments, cells were cultured in poly-D-Lys coated blacked walled, clear-bottom 96-well microplates. HEK293T cells stably expressing MRGPRX4 were cultured in DMEM medium supplemented with 10% FBS and 1% PS, at 37° C. in a humidified atmosphere with 5% CO2. Cells were detached by centrifuging (1000 rpm, 3 min). The pellet was re-suspended in medium, and cell density was adjusted to about 1×10^6 cells/mL. 100 μL suspension was seeded to each well of a microplates (cell plate). Cells in the microplates were cultured overnight. In the following day, cells were grown to higher than 95% density in each well.
MRGPRX4, sequence (Q96LA9 whole entry): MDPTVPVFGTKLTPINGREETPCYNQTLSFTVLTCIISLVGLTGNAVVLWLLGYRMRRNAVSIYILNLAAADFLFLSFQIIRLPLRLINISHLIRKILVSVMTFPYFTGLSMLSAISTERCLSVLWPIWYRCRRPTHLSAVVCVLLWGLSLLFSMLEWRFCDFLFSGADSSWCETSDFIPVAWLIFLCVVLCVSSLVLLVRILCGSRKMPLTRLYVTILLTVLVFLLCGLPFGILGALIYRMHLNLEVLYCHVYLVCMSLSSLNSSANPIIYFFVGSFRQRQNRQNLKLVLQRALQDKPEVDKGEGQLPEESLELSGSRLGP
Ca^2+ fluorescent dye loading: Fluo-8 AM (Screen Quest Fluo-8 AM Calcium Assay Kit, AAT Bioquest, cat. #: 21083) was diluted in HHBS buffer and adjusted to 2 μM (dye buffer). Medium in each well was changed into 50 μL dye buffer carefully. After incubation for 40-60 min under room temperature, the dye buffer was changed into 50 μL HHBS buffer.
The concentration of solution should be determined according to the protocol settings and experimental needs (e.g., Log[M]=−4, −5, −6, −7, −8, and −9). Prepare 2× serial dilution series of compounds (at least 75 μL per well).
A fluorescent signal baseline was measured using FLIPR®Tetra for 30 s. Then 50 μL of the chemical solution would be added to the cell plate. The fluorescent signal would be measured for another 150 s.
Activity of each compound was calculated by the fluorescence change (dF/F0). Curves were fitted to obtain EC50 values. In some embodiments, at least 3 repeats were performed to obtain the average values. For assessment of a compound, gradient diluted solutions of different concentrations were used to treat cells and corresponding responses were used to fit sigmoid function and to derive EC50 in Origin. In some embodiments, assessed concentrations were or included about 10^−4, 10^−4.5, 10^−5, 10^−5.5, 10^−6, 10^−6.5, 10^−7, 10^−8, and/or 10^−9 M; for example, in many instances, assessed concentrations included about 10^−5, 10^−6, 10^−7 and 10^−8 M. In some embodiments, assessed concentrations were about 10^−4, 10^−4.5, 10^−5, 10^−5.5, 10^−6, 10^−7, 10^−8, and 10^−9 M. In some embodiments, assessed concentrations were about 10^−4, 10^−5, 10^−6, 10^−7, 10^−8, and 10^−9 M. In some embodiments, assessed concentrations were about 10^−4, 10^−4.5, 10^−5, 10^−5.5, 10^−6, and 10^−7 M. In some embodiments, assessed concentrations were about 2000000, 1000000, 500000, 250000, 125000, 62500, 31250, 15625, 7813, 3906 nM. […] In some embodiments, assessed concentrations were about 30000, 10000, 3333, 1111, 370, 123, 41, 14, 4.6, 1.5 nM.

Values joined by “and” are separate entries in the source; they are usually repeats but may differ in a detail not shown here. Equal entries are not always repeated.

Usually EC50 stands for the concentration that produces a half-maximal response. As to `CC[C@H]1[C@@H](O)[C@@H]2[C@H](CC[C@]3(C)[C@@H]([C@H](C)CCC(=O)O)CC[C@@H]23)[C@@]2(C)CC[C@H](F)C[C@@H]12` [1-1], in assay [1], the “Efficacy (maximum measured induction of NanoLuc, normalized to CDCA set as 100%)” value was “C (100%<efficacy <=300%)”. For the same molecule, the concentration for a half-maximal effect (EC50) is 1 to 10 µM in assay [1] and above 100 µM in assay [2].

Regarding `CO/N=C1\C[C@@H]2C[C@H](OC(C)=O)CC[C@]2(C)[C@H]2CC[C@]3(C)[C@@H]([C@H](C)CCC(=O)OC)CC[C@H]3[C@H]12` [1-2], the “Efficacy (maximum measured induction of NanoLuc, normalized to CDCA set as 100%)” value in assay [1] is “D (efficacy <=100%)”. In addition, the results for the EC50 in assay [1] and in assay [2] were above 10 µM and 50 to 100 µM, respectively. For the same molecule, the “MRGPRX4 activation, fluorescence change (dF/F0), Average” value (from here on “MRGPRX4 activation, fluorescence change”) in assay [2] (Conc. (Log[M]) −5) was 0.027 and 0.022.

Regarding `COC(=O)CC[C@@H](C)[C@H]1CC[C@H]2[C@@H]3/C(=N\OC(C)(C)C(=O)O)C[C@@H]4C[C@H](OC(C)=O)CC[C@]4(C)[C@H]3CC[C@]12C` [1-3], the “Efficacy (maximum measured induction of NanoLuc, normalized to CDCA set as 100%)” value in assay [1] was “C (100%<efficacy <=300%)”. Also, the EC50 in assay [1] is above 10 µM; in assay [2] it was below 50 µM. Moreover, the “MRGPRX4 activation, fluorescence change” value in assay [2] (Conc. (Log[M]) −4) is given as 0.109; in assay [2] (Conc. (Log[M]) −4.5) it was 0.114; in assay [2] (Conc. (Log[M]) −5), 0.047; in assay [2] (Conc. (Log[M]) −5.5) it was −0.026; in assay [2] (Conc. (Log[M]) −6), −0.008; in assay [2] (Conc. (Log[M]) −7), 0.018. Besides, the “MRGPRX4 activation, fluorescence change” value is listed as −0.003 in assay [2] (Conc. (Log[M]) −8) and 0.008 in assay [2] (Conc. (Log[M]) −9).

Regarding `CC[C@H]1[C@@H](O)[C@@H]2[C@H](CC[C@]3(C)[C@@H]([C@H](C)CCC(=O)OC)CC[C@@H]23)[C@@]2(C)CCCC[C@@H]12` [1-4], the “Efficacy (maximum measured induction of NanoLuc, normalized to CDCA set as 100%)” value in assay [1] was “C (100%<efficacy <=300%)”. In addition, the values for the EC50 in assay [1] and in assay [2] were 1 to 10 µM and above 100 µM, respectively. Further, the “MRGPRX4 activation, fluorescence change” value in assay [2] (Conc. (Log[M]) −4) is 0.098; in assay [2] (Conc. (Log[M]) −4.5), 0.004; in assay [2] (Conc. (Log[M]) −5), −0.014; in assay [2] (Conc. (Log[M]) −5.5), −0.004; in assay [2] (Conc. (Log[M]) −6), −0.011; in assay [2] (Conc. (Log[M]) −7), −0.006. The “MRGPRX4 activation, fluorescence change” value is −0.009 in assay [2] (Conc. (Log[M]) −8) and −0.020 in assay [2] (Conc. (Log[M]) −9).

Turning to `CC[C@H]1[C@@H](OC(=O)c2cccc(I)c2)[C@@H]2[C@H](CC[C@]3(C)[C@@H]([C@H](C)CCC(=O)OC)CC[C@@H]23)[C@@]2(C)CCCC[C@@H]12` [1-5], the “Efficacy (maximum measured induction of NanoLuc, normalized to CDCA set as 100%)” value in assay [1] is listed as “D (efficacy <=100%)”. Besides, the EC50 is above 10 µM in assay [1] and 50 to 100 µM in assay [2]. The “MRGPRX4 activation, fluorescence change” value in assay [2] (Conc. (Log[M]) −4) is 0.035; in assay [2] (Conc. (Log[M]) −4.5) it was −0.027; in assay [2] (Conc. (Log[M]) −5), −0.045; in assay [2] (Conc. (Log[M]) −5.5), −0.034; in assay [2] (Conc. (Log[M]) −6), −0.041; in assay [2] (Conc. (Log[M]) −7), −0.027. The “MRGPRX4 activation, fluorescence change” value is −0.049 in assay [2] (Conc. (Log[M]) −8) and −0.084 in assay [2] (Conc. (Log[M]) −9).

In the case of `CC[C@H]1[C@@H](OC(=O)c2cccc(I)c2)[C@@H]2[C@H](CC[C@@]3(C)[C@H]2CC[C@]3(Cl)[C@H](C)CCC(=O)OC)[C@@]2(C)CCCC[C@@H]12` [1-6], the “Efficacy (maximum measured induction of NanoLuc, normalized to CDCA set as 100%)” value in assay [1] is “D (efficacy <=100%)”. For the same molecule, the figures for the EC50 in assay [1] and in assay [2] were above 10 µM and above 100 µM, respectively. Also, the “MRGPRX4 activation, fluorescence change” value in assay [2] (Conc. (Log[M]) −4) is given as 0.018; in assay [2] (Conc. (Log[M]) −4.5), −0.031; in assay [2] (Conc. (Log[M]) −5), −0.001; in assay [2] (Conc. (Log[M]) −5.5), −0.012; in assay [2] (Conc. (Log[M]) −6), −0.006; in assay [2] (Conc. (Log[M]) −7), −0.001. Further, the “MRGPRX4 activation, fluorescence change” value in assay [2] (Conc. (Log[M]) −8) was 0.001; in assay [2] (Conc. (Log[M]) −9), −0.014.
